Results from patent EP4389749A1, “SUBSTITUTED 3,7-DIHYDRO-1H-PURINE-2,6-DIONES AND USE THEREOF” (invIOs GmbH, priority 2022, dated 2024).

Experiments:
CD8+ T-cells = assay: Immunostimulation assay with anti-CD3/28 stimulated T-cells, CD69 expression by flow cytometry; type: cell-based, human; settings: T-cell; purified human CD4+ and CD8+ T-cells, 1 µg/ml anti-CD3, 1 µg/ml anti-CD28, 16 hours, surface FACS; read-out: EC50 CD8+
Description: (§1) Selection of potent compounds based on structure activity relation (SAR) using human, anti-CD3/28 stimulated T-cells. Enhanced activation of stimulated T-cells is measured by CD69 expression by flowcytometry.
(§2) White blood cell enriched buffy coats were ordered from the Austrian red cross, diluted with PBS to a total volume of 480 ml, 30 ml transferred to 50ml falcons and 11 ml lymphoprep added. Cell suspensions were centrifuged for 20 min at 2200 rpm and the PBMC containing layer transferred, three times washed with PBS and counted.
(§3) 10^7 PBMCs were magnetically labeled with CD4 and CD8 microbeads according to manufacturer's instructions and separated using autoMACS device. For dose response experiments with purified CD4+CD8+ T-cells 80000 cells were seeded per 96-well flat bottom cell culture dish.
(§4) 10 mM compounds of the invention stocks were further diluted using DMSO and equal amounts transferred to T-cell containing 96-wells. Final concentrations tested were: 30 µM, 10 µM, 3 µM, 1 µM, 0.3 µM, 0.1 µM, 0.03 µM, 0.01 µM, 0.003 µM and 0.001 µM.
(§5) For the stimulation assays 80.000 purified CD4+ and CD8+ T-cells were seeded per 96-well and incubated with 1 µg/ml anti-CD3, 1 µg/ml anti-CD28 and compounds of the invention ranging from 0.001 µM to 30 µM. DMSO only wells served as control to determine minimal T-cell activation upon stimulation and CD3/28 coupled Dynabeads were used to determine the maximal activation of T-cells. Cells were cultured for 16 hours in a humidified incubator at 37 °C and 5 % CO2.
(§6) T-cells were stained for surface antigens (anti-CD4 and anti-CD8) and cell activation markers (anti-CD25 and anti-CD69). Additionally, a fixable viability dye was used to stain viable cells. Staining was performed for 15 minutes and cells analyzed using a Fortessa flow cytometer and FlowJo Software. EC50s were calculated using GraphPad Prism® and a variable slope model (agonist vs. response - variable slope).

CD4+ T-cells = assay: as above; type: cell-based, human; settings: T-cell; purified human CD4+ and CD8+ T-cells, 1 µg/ml anti-CD3, 1 µg/ml anti-CD28, 16 hours, surface FACS; read-out: EC50 CD4+
Description: as §1, §2, §3, §4, §5, §6

## CCC(O)Cn1c(=O)[nH]c(=O)c2c1nc(-c1ccc(OCc3ccccc3)c(OC)c1)n2C (centres unmarked) [Compound 59, 8-(4-(benzyloxy)-3-methoxyphenyl)-3-(2-hydroxybutyl)-7-methyl-3,7-dihydro-1H-purine-2,6-dione]
CD8+ T-cells
  EC50: 1000 to 5000 nM
CD4+ T-cells
  EC50: 1000 to 5000 nM

## COc1cc(-c2nc3c(c(=O)[nH]c(=O)n3CC(C)(C)O)n2C)ccc1OCc1ccccc1 [Compound 52, 8-(4-(benzyloxy)-3-methoxyphenyl)-3-(2-hydroxy-2-methylpropyl)-7-methyl-3,7-dihydro-1H-purine-2,6-dione]
CD8+ T-cells
  EC50: > 5000 nM
CD4+ T-cells
  EC50: 1000 to 5000 nM

## CC(O)Cn1c(=O)[nH]c(=O)c2c1nc(-c1ccc(Oc3ccc(OC(F)(F)F)c(Cl)c3)cc1)n2C (centres unmarked) [Compound 194, 8-(4-(3-chloro-4-(trifluoromethoxy)phenoxy)phenyl)-3-(2-hydroxypropyl)-7-methyl-3,7-dihydro-1H-purine-2,6-dione]
CD8+ T-cells
  EC50: 500 to 1000 nM
CD4+ T-cells
  EC50: 100 to 500 nM

## COc1cc(-c2nc3c(c(=O)[nH]c(=O)n3CC(C)O)n2C)ccc1OCc1ccc(Cl)cc1 (centres unmarked) [Compound 88, 8-(4-((4-chlorobenzyl)oxy)-3-methoxyphenyl)-3-(2-hydroxypropyl)-7-methyl-3,7-dihydro-1H-purine-2,6-dione]
CD8+ T-cells
  EC50: 100 to 500 nM
CD4+ T-cells
  EC50: 100 to 500 nM

## COc1cc(-c2nc3c(c(=O)[nH]c(=O)n3C[C@H](C)O)n2C)ccc1OCc1ccccc1 [Compound 61, (S)-8-(4-(benzyloxy)-3-methoxyphenyl)-3-(2-hydroxypropyl)-7-methyl-3,7-dihydro-1H-purine-2,6-dione]
CD8+ T-cells
  EC50: 500 to 1000 nM
CD4+ T-cells
  EC50: 500 to 1000 nM

## CC(O)Cn1c(=O)[nH]c(=O)c2c1nc(-c1ccc(Oc3ccc(Cl)cc3)c(Cl)c1)n2C (centres unmarked) [Compound 180, 8-(3-chloro-4-(4-chlorophenoxy)phenyl)-3-(2-hydroxypropyl)-7-methyl-3,7-dihydro-1H-purine-2,6-dione]
CD8+ T-cells
  EC50: 500 to 1000 nM
CD4+ T-cells
  EC50: 1000 to 5000 nM

## Cn1c(-c2ccc(OCc3ccc(C(F)F)cc3)c(F)c2)nc2c1c(=O)[nH]c(=O)n2CC(O)CF (centres unmarked) [Compound 63, 8-(4-((4-(difluoromethyl)benzyl)oxy)-3-fluorophenyl)-3-(3-fluoro-2-hydroxypropyl)-7-methyl-3,7-dihydro-1H-purine-2,6-dione]
CD8+ T-cells
  EC50: 100 to 500 nM
CD4+ T-cells
  EC50: 100 to 500 nM

## CC(O)Cn1c(=O)[nH]c(=O)c2c1nc(-c1ccc(OCCCc3ccccc3)c(F)c1)n2C (centres unmarked) [Compound 201, 8-(3-fluoro-4-(3-phenylpropoxy)phenyl)-3-(2-hydroxypropyl)-7-methyl-3,7-dihydro-1H-purine-2,6-dione]
CD8+ T-cells
  EC50: 100 to 500 nM
CD4+ T-cells
  EC50: 100 to 500 nM

## Cn1c(-c2ccc(Oc3ccc(OC(F)(F)F)c(Cl)c3)c(F)c2)nc2c1c(=O)[nH]c(=O)n2CC(O)C(F)(F)F (centres unmarked) [Compound 166, 8-(4-(3-chloro-4-(trifluoromethoxy)phenoxy)-3-fluorophenyl)-7-methyl-3-(3,3,3-trifluoro-2-hydroxypropyl)-3,7-dihydro-1H-purine-2,6-dione]
CD8+ T-cells
  EC50: 100 to 500 nM
CD4+ T-cells
  EC50: 100 to 500 nM

## Cn1c(-c2ccc(Oc3ccc(OC(F)F)cc3)c(Cl)c2)nc2c1c(=O)[nH]c(=O)n2CC(O)C(F)(F)F (centres unmarked) [Compound 162, 8-(3-chloro-4-(4-(difluoromethoxy)phenoxy)phenyl)-7-methyl-3-(3,3,3-trifluoro-2-hydroxypropyl)-3,7-dihydro-1H-purine-2,6-dione]
CD8+ T-cells
  EC50: > 5000 nM
CD4+ T-cells
  EC50: 500 to 1000 nM

## COc1cc(-c2nc3c(c(=O)[nH]c(=O)n3CC(O)CF)n2C)ccc1OCc1ccc(C(F)F)cc1 (centres unmarked) [Compound 73, 8-(4-((4-(difluoromethyl)benzyl)oxy)-3-methoxyphenyl)-3-(3-fluoro-2-hydroxypropyl)-7-methyl-3,7-dihydro-1H-purine-2,6-dione]
CD8+ T-cells
  EC50: 500 to 1000 nM
CD4+ T-cells
  EC50: 500 to 1000 nM

## COc1cc(-c2nc3c(c(=O)[nH]c(=O)n3C[C@H](O)C(F)F)n2C)ccc1OCc1ccccc1 [Compound 53, (S)-8-(4-(benzyloxy)-3-methoxyphenyl)-3-(3,3-difluoro-2-hydroxypropyl)-7-methyl-3,7-dihydro-1H-purine-2,6-dione]
CD8+ T-cells
  EC50: < 100 nM
CD4+ T-cells
  EC50: < 100 nM

## CC(O)Cn1c(=O)[nH]c(=O)c2c1nc(-c1ccc(Oc3ccc(S(C)(=O)=O)cc3)cc1)n2C (centres unmarked) [Compound 176, 3-(2-hydroxypropyl)-7-methyl-8-(4-(4-(methylsulfonyl)phenoxy)phenyl)-3,7-dihydro-1H-purine-2,6-dione]
CD8+ T-cells
  EC50: 500 to 1000 nM
CD4+ T-cells
  EC50: 1000 to 5000 nM

## Cn1c(-c2ccc(OCc3ccccc3)c(OC(F)(F)F)c2)nc2c1c(=O)[nH]c(=O)n2CC(O)C(F)F (centres unmarked) [Compound 199, 8-(4-(benzyloxy)-3-(trifluoromethoxy)phenyl)-3-(3,3-difluoro-2-hydroxypropyl)-7-methyl-3,7-dihydro-1H-purine-2,6-dione]
CD8+ T-cells
  EC50: < 100 nM
CD4+ T-cells
  EC50: < 100 nM

## Cc1ccc(COc2ccc(-c3nc4c(c(=O)[nH]c(=O)n4CC(CO)C(F)F)n3C)cc2F)cc1 (centres unmarked) [Compound 67, 3-(3,3-difluoro-2-(hydroxymethyl)propyl)-8-(3-fluoro-4-((4-methylbenzyl)oxy)phenyl)-7-methyl-3,7-dihydro-1H-purine-2,6-dione]
CD8+ T-cells
  EC50: 100 to 500 nM
CD4+ T-cells
  EC50: < 100 nM

## Cn1c(-c2ccc(Oc3ccc(OC(F)(F)F)cc3)c(F)c2)nc2c1c(=O)[nH]c(=O)n2CC(O)CF (centres unmarked) [Compound 149, 3-(3-fluoro-2-hydroxypropyl)-8-(3-fluoro-4-(4-(trifluoromethoxy)phenoxy)phenyl)-7-methyl-3,7-dihydro-1H-purine-2,6-dione]
CD8+ T-cells
  EC50: 100 to 500 nM
CD4+ T-cells
  EC50: 100 to 500 nM

## Cn1c(-c2ccc(OCc3ccc(C(F)F)cc3)c(F)c2)nc2c1c(=O)[nH]c(=O)n2CC(O)C(F)(F)F (centres unmarked) [Compound 64, 8-(4-((4-(difluoromethyl)benzyl)oxy)-3-fluorophenyl)-7-methyl-3-(3,3,3-trifluoro-2-hydroxypropyl)-3,7-dihydro-1H-purine-2,6-dione]
CD8+ T-cells
  EC50: 1000 to 5000 nM
CD4+ T-cells
  EC50: > 5000 nM

## COc1cc(-c2nc3c(c(=O)[nH]c(=O)n3CC(O)C(F)F)n2C)ccc1OCc1ccc(F)cc1 (centres unmarked) [Compound 84, 3-(3,3-difluoro-2-hydroxypropyl)-8-(4-((4-fluorobenzyl)oxy)-3-methoxyphenyl)-7-methyl-3,7-dihydro-1H-purine-2,6-dione]
CD8+ T-cells
  EC50: < 100 nM
CD4+ T-cells
  EC50: 100 to 500 nM

## COc1cc(-c2nc3c(c(=O)[nH]c(=O)n3CC(C)O)n2C)ccc1OCc1ccc(F)c(Cl)c1 (centres unmarked) [Compound 99, 8-(4-((3-chloro-4-fluorobenzyl)oxy)-3-methoxyphenyl)-3-(2-hydroxypropyl)-7-methyl-3,7-dihydro-1H-purine-2,6-dione]
CD8+ T-cells
  EC50: 100 to 500 nM
CD4+ T-cells
  EC50: 100 to 500 nM

## COc1cc(-c2nc3c(c(=O)[nH]c(=O)n3CC(O)CO)n2C)ccc1OCc1ccc(C(F)F)cc1 (centres unmarked) [Compound 72, 8-(4-((4-(difluoromethyl)benzyl)oxy)-3-methoxyphenyl)-3-(2,3-dihydroxypropyl)-7-methyl-3,7-dihydro-1H-purine-2,6-dione]
CD8+ T-cells
  EC50: 1000 to 5000 nM
CD4+ T-cells
  EC50: 1000 to 5000 nM

## CC(O)Cn1c(=O)[nH]c(=O)c2c1nc(-c1ccc(OCc3ccc(C(F)F)cc3)c(F)c1)n2C (centres unmarked) [Compound 65, 8-(4-((4-(difluoromethyl)benzyl)oxy)-3-fluorophenyl)-3-(2-hydroxypropyl)-7-methyl-3,7-dihydro-1H-purine-2,6-dione]
CD8+ T-cells
  EC50: 100 to 500 nM
CD4+ T-cells
  EC50: 500 to 1000 nM

## Cc1ccc(COc2ccc(-c3nc4c(c(=O)[nH]c(=O)n4CC(C)O)n3C)cc2F)cc1 (centres unmarked) [Compound 115, 8-(3-fluoro-4-((4-methylbenzyl)oxy)phenyl)-3-(2-hydroxypropyl)-7-methyl-3,7-dihydro-1H-purine-2,6-dione]
CD8+ T-cells
  EC50: 500 to 1000 nM
CD4+ T-cells
  EC50: 500 to 1000 nM

## CC(O)Cn1c(=O)[nH]c(=O)c2c1nc(-c1ccc(Oc3cccc(OC(F)(F)F)c3)cc1)n2C (centres unmarked) [Compound 191, 3-(2-hydroxypropyl)-7-methyl-8-(4-(3-(trifluoromethoxy)phenoxy)phenyl)-3,7-dihydro-1H-purine-2,6-dione]
CD8+ T-cells
  EC50: 500 to 1000 nM
CD4+ T-cells
  EC50: 500 to 1000 nM

## COc1cc(-c2nc3c(c(=O)[nH]c(=O)n3CC(C)O)n2C)ccc1OCc1cccc2ccncc12 (centres unmarked) [Compound 101, 3-(2-hydroxypropyl)-8-(4-(isoquinolin-8-ylmethoxy)-3-methoxyphenyl)-7-methyl-3,7-dihydro-1H-purine-2,6-dione]
CD8+ T-cells
  EC50: 100 to 500 nM
CD4+ T-cells
  EC50: 100 to 500 nM

## CC(CO)Cn1c(=O)[nH]c(=O)c2c1nc(-c1ccc(Oc3ccc(OC(F)(F)F)cc3)c(F)c1)n2C (centres unmarked) [Compound 152, 8-(3-fluoro-4-(4-(trifluoromethoxy)phenoxy)phenyl)-3-(3-hydroxy-2-methylpropyl)-7-methyl-3,7-dihydro-1H-purine-2,6-dione]
CD8+ T-cells
  EC50: 100 to 500 nM
CD4+ T-cells
  EC50: 100 to 500 nM
